Reference: PubChem BioAssay AID248 (DTP/NCI, 2004)
“And” between values parts separate entries of the source, which are not always exact repeats. Equal entries are not always repeated. Toxic doses and inconclusive results are not listed. No stated cut-off is given here; in the data, active means T/C of 150% or more; inactive means T/C below 125%.

Tested on: L1210 leukemia ip in BDF1 mice, survival T/C
Assay: NCI In Vivo Anticancer Drug Screen. Data for tumor model L1210 Leukemia (intraperitoneal) in B6D2F1 (BDF1) mice
Conditions: endpoint: mean survival time, higher = longer survival
Procedure, shortened: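 Tumor was transplanted into mice, which were then dosed with test compound or vehicle alone. Survival was recorded for each group, and the treated figure was expressed relative to the control figure.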

[1] = dose: 100.0 mg/kg/injection, schedule: Q01DX001 (ip), vehicle: saline with Tween-80
[2] = dose: 200.0 mg/kg/injection, schedule: Q01DX001 (ip), vehicle: saline with Tween-80
[3] = dose: 400.0 mg/kg/injection, schedule: Q01DX001 (ip), vehicle: saline with Tween-80
[4] = dose: 100.0 mg/kg/injection, schedule: Q01DX009 (ip), vehicle: Klucel (hydroxypropylcellulose) (HPC)
[5] = dose: 100.0 mg/kg/injection, schedule: Q04DX003 (ip), vehicle: Klucel (hydroxypropylcellulose) (HPC)
[6] = dose: 200.0 mg/kg/injection, schedule: Q01DX009 (ip), vehicle: Klucel (hydroxypropylcellulose) (HPC)
[7] = dose: 200.0 mg/kg/injection, schedule: Q04DX003 (ip), vehicle: Klucel (hydroxypropylcellulose) (HPC)
[8] = dose: 400.0 mg/kg/injection, schedule: Q01DX009 (ip), vehicle: Klucel (hydroxypropylcellulose) (HPC)
[9] = dose: 400.0 mg/kg/injection, schedule: Q04DX003 (ip), vehicle: Klucel (hydroxypropylcellulose) (HPC)
[10] = dose: 100.0 mg/kg/injection, schedule: Q01DX001 (ip), vehicle: carboxymethylcellulose (CMC)
[11] = dose: 200.0 mg/kg/injection, schedule: Q01DX001 (ip), vehicle: carboxymethylcellulose (CMC)
[12] = dose: 400.0 mg/kg/injection, schedule: Q01DX001 (ip), vehicle: carboxymethylcellulose (CMC)
[13] = dose: 12.5 mg/kg/injection, schedule: Q01DX009 (ip), vehicle: saline
[14] = dose: 25.0 mg/kg/injection, schedule: Q01DX009 (ip), vehicle: saline
[15] = dose: 25.0 mg/kg/injection, schedule: Q04DX003 (ip), vehicle: saline
[16] = dose: 50.0 mg/kg/injection, schedule: Q01DX009 (ip), vehicle: saline
[17] = dose: 100.0 mg/kg/injection, schedule: Q01DX001 (ip), vehicle: saline
[18] = dose: 100.0 mg/kg/injection, schedule: Q04DX003 (ip), vehicle: saline
[19] = dose: 200.0 mg/kg/injection, schedule: Q01DX001 (ip), vehicle: saline
[20] = dose: 400.0 mg/kg/injection, schedule: Q01DX001 (ip), vehicle: saline

Measured: T/C

COc1ccc2c(c1OC)CC[N+]1=C3CCCCC3=C(N)CC21 (centres undefined)
inactive: [1] 97 % of control | [2] 97 % of control | [3] 96 % of control

O=C(Nc1ccccc1Cl)Oc1ccccc1Cc1ccccc1
inactive: [4] 96 % of control | [5] 107 % of control | [6] 93 % of control | [7] 90 % of control | [8] 115 % of control | [9] 93 % of control

COC(=O)c1ccc(O)c(C(=O)OC)c1
inactive: [10] 92 % of control | [11] 97 % of control | [12] 103 % of control

COc1ccc2cc[n+](C)cc2c1
inactive: [13] 101 % of control | [14] 110 % of control | [15] 100 % of control | [16] 110 % of control | dose: 50.0 mg/kg/injection, schedule: Q04DX003 (ip), vehicle: saline 96 % of control

COc1cccc(NC(=S)Nc2cccc(OC)c2)c1
inactive: [1] 108 % of control | dose: 100.0 mg/kg/injection, schedule: Q01DX009 (ip), vehicle: saline with Tween-80 95 % of control | dose: 100.0 mg/kg/injection, schedule: Q04DX002 (ip), vehicle: saline with Tween-80 91 % of control | [2] 104 % of control | dose: 200.0 mg/kg/injection, schedule: Q01DX009 (ip), vehicle: saline with Tween-80 92 % of control and 100 % of control | dose: 200.0 mg/kg/injection, schedule: Q04DX002 (ip), vehicle: saline with Tween-80 94 % of control and 96 % of control | [3] 101 % of control | dose: 400.0 mg/kg/injection, schedule: Q01DX009 (ip), vehicle: saline with Tween-80 90 % of control | dose: 400.0 mg/kg/injection, schedule: Q04DX002 (ip), vehicle: saline with Tween-80 104 % of control and 88 % of control

Nc1cc(Cl)ccc1Oc1ccc(Cl)cc1
inactive: dose: 37.5 mg/kg/injection, schedule: Q01DX009 (ip), vehicle: Klucel (hydroxypropylcellulose) (HPC) 103 % of control | dose: 75.0 mg/kg/injection, schedule: Q01DX009 (ip), vehicle: Klucel (hydroxypropylcellulose) (HPC) 98 % of control | dose: 150.0 mg/kg/injection, schedule: Q01DX009 (ip), vehicle: Klucel (hydroxypropylcellulose) (HPC) 95 % of control

CCCCCc1cc[n+](CC(=O)c2ccccc2)cc1
inactive: [15] 100 % of control | [17] 93 % of control | [18] 87 % of control

Cc1ccc(C(=O)NS(=O)(=O)c2ccc(C)cc2)cc1
inactive: [4] 91 % of control | [5] 101 % of control | [6] 105 % of control | [7] 103 % of control | [9] 104 % of control

Cc1cc(C(C)(C)C)cc(C)c1O
inactive: [4] 97 % of control | [5] 95 % of control | [6] 100 % of control | [7] 95 % of control | [8] 97 % of control | [9] 95 % of control

C=CCNC(=S)Nc1cccc2ccccc12
inactive: dose: 12.5 mg/kg/injection, schedule: Q04DX003 (ip), vehicle: Klucel (hydroxypropylcellulose) (HPC) 105 % of control | dose: 25.0 mg/kg/injection, schedule: Q04DX003 (ip), vehicle: Klucel (hydroxypropylcellulose) (HPC) 96 % of control | dose: 50.0 mg/kg/injection, schedule: Q04DX003 (ip), vehicle: Klucel (hydroxypropylcellulose) (HPC) 105 % of control

Oc1cccc2ccc3ccc4ccccc4c3c12
inactive: dose: 87.5 mg/kg/injection, schedule: Q04DX003 (ip), vehicle: Klucel (hydroxypropylcellulose) (HPC) 93 % of control | dose: 175.0 mg/kg/injection, schedule: Q04DX003 (ip), vehicle: Klucel (hydroxypropylcellulose) (HPC) 93 % of control | dose: 350.0 mg/kg/injection, schedule: Q04DX003 (ip), vehicle: Klucel (hydroxypropylcellulose) (HPC) 95 % of control

COC(=O)CCCCCNC(=O)NCCCCCC(=O)OC
inactive: [4] 90 % of control | [5] 95 % of control | [6] 87 % of control | [7] 93 % of control | [8] 90 % of control | [9] 93 % of control

CCN(CC)CCOc1c(C(C)C)cccc1C(C)C
inactive: [13] 101 % of control | [14] 108 % of control | [16] 108 % of control and 89 % of control | [18] 117 % of control

COc1ccc2c(c1)CC/C(=C\c1ccccn1)C2=O
inactive: dose: 100.0 mg/kg/injection, schedule: Q04DX003 (ip), vehicle: carboxymethylcellulose (CMC) 98 % of control | dose: 200.0 mg/kg/injection, schedule: Q04DX003 (ip), vehicle: carboxymethylcellulose (CMC) 97 % of control | dose: 400.0 mg/kg/injection, schedule: Q04DX003 (ip), vehicle: carboxymethylcellulose (CMC) 98 % of control

CN(C)C(CCN1CCCCC1)CN1CCCCC1 (centres undefined)
inactive: [17] 100 % of control | [19] 96 % of control | [20] 90 % of control

COC(CC[P+](c1ccccc1)(c1ccccc1)c1ccccc1)(C(=O)c1ccccc1)c1ccccc1 (centres undefined)
inactive: dose: 15.0 mg/kg/injection, schedule: Q01DX001 (ip), vehicle: carboxymethylcellulose (CMC) 96 % of control | dose: 30.0 mg/kg/injection, schedule: Q01DX001 (ip), vehicle: carboxymethylcellulose (CMC) 90 % of control | dose: 60.0 mg/kg/injection, schedule: Q01DX001 (ip), vehicle: carboxymethylcellulose (CMC) 89 % of control

CCCCCOc1ccc(C(=O)/C(Br)=C/C(=O)O)cc1
inactive: dose: 12.5 mg/kg/injection, schedule: Q01DX009 (ip), vehicle: saline with Tween-80 98 % of control | dose: 25.0 mg/kg/injection, schedule: Q01DX009 (ip), vehicle: saline with Tween-80 96 % of control | dose: 50.0 mg/kg/injection, schedule: Q01DX009 (ip), vehicle: saline with Tween-80 101 % of control

COc1ccc(/C=N/N2CCN(/N=C/c3ccc(OC)c(O)c3)CC2)cc1O
inactive: [17] 93 % of control | [19] 87 % of control | [20] 96 % of control

CCN(CCNc1ccc(C)c2sc3ccccc3c(=O)c12)CC(C)(C)O
inactive: dose: 25.0 mg/kg/injection, schedule: Q01DX009 (ip), vehicle: saline sonified 97 % of control | dose: 32.0 mg/kg/injection, schedule: Q02DX Z (ip), vehicle: distilled water + alcohol 119 % of control | dose: 50.0 mg/kg/injection, schedule: Q01DX001 (ip), vehicle: saline 106 % of control | dose: 50.0 mg/kg/injection, schedule: Q01DX009 (ip), vehicle: saline sonified 95 % of control | dose: 60.0 mg/kg/injection, schedule: Q01DX009 (ip), vehicle: saline 120 % of control | [17] 112 % of control | dose: 100.0 mg/kg/injection, schedule: Q01DX009 (ip), vehicle: saline sonified 118 % of control | [19] 109 % of control | dose: 200.0 mg/kg/injection, schedule: Q04DX003 (ip), vehicle: saline 104 % of control | dose: 300.0 mg/kg/injection, schedule: Q01DX009 (ip), vehicle: saline 95 % of control | [20] 124 % of control | dose: 400.0 mg/kg/injection, schedule: Q04DX003 (ip), vehicle: saline 108 % of control
active: dose: 600.0 mg/kg/injection, schedule: Q04DX003 (ip), vehicle: saline 189 % of control

[Br][Pb]([Br])([c]1ccccc1)[c]1ccccc1
inactive: [4] 117 % of control | [5] 91 % of control | [6] 98 % of control | [7] 100 % of control | [9] 94 % of control

CC(C)(C)O[Si](C)(C)CCl
inactive: [10] 92 % of control | [11] 92 % of control | [12] 92 % of control

CC1CCNC(C(C)C)CC1 (centres undefined)
inactive: dose: 100.0 mg/kg/injection, schedule: Q04DX002 (ip), vehicle: saline 96 % of control | dose: 200.0 mg/kg/injection, schedule: Q04DX002 (ip), vehicle: saline 115 % of control

Nc1cc(Nc2ccc(Cl)[nH]c2=S)nc(N)n1
inactive: dose: 100.0 mg/kg/injection, schedule: Q01DX001 (ip), vehicle: Klucel (hydroxypropylcellulose) (HPC) 90 % of control | dose: 200.0 mg/kg/injection, schedule: Q01DX001 (ip), vehicle: Klucel (hydroxypropylcellulose) (HPC) 93 % of control | dose: 400.0 mg/kg/injection, schedule: Q01DX001 (ip), vehicle: Klucel (hydroxypropylcellulose) (HPC) 92 % of control

CC(OC(=O)c1ccccc1C(=O)O)c1ccccc1 (centres undefined)
inactive: [10] 93 % of control | [11] 96 % of control | [12] 96 % of control

c1ccc(-c2csc3cccc[n+]23)cc1
inactive: dose: 100.0 mg/kg/injection, schedule: Q04DX003 (ip), vehicle: saline with Tween-80 102 % of control
